Source: the NIST ThermoML archive (doi:10.1016/j.jct.2013.01.032)
Numbers after ± are expanded uncertainties.

Key:
[1] = osmotic coefficient (dimensionless); mn = molality of the nth substance listed, in mol/kg; conditions: 323.15 K, Liquid, Knauer Osmometer
[2] = mn = molality of the nth substance listed, in mol/kg; conditions: 101 kPa, Liquid; for speed of sound: Sing-around technique in a fixed-path interferometer; for mass density: Vibrating tube method

CCCCn1cc[n+](C)c1.O=S(=O)([O-])C(F)(F)F [1-butyl-3-methylimidazolium trifluoromethanesulfonate] + CCCCO
[1]
Conditions | osmotic coefficient
m1 = 0.0481 | 0.84 ± 0.015
m1 = 0.1053 | 0.618 ± 0.018
m1 = 0.2108 | 0.512 ± 0.021
m1 = 0.3131 | 0.457 ± 0.023
m1 = 0.4049 | 0.425 ± 0.024
m1 = 0.4947 | 0.403 ± 0.024
m1 = 0.8149 | 0.36 ± 0.026
m1 = 1.216 | 0.323 ± 0.027
m1 = 1.613 | 0.301 ± 0.027
m1 = 2.036 | 0.28 ± 0.028
m1 = 2.425 | 0.268 ± 0.029
m1 = 2.82 | 0.27 ± 0.028
m1 = 3.311 | 0.259 ± 0.029

[2]
Conditions | mass density, 293.15 K [kg/m3] | mass density, 308.15 K [kg/m3] | mass density, 323.15 K [kg/m3] | speed of sound, 293.15 K [m/s] | speed of sound, 308.15 K [m/s] | speed of sound, 323.15 K [m/s]
m1 = 0.052 | 814.31 ± 0.22 | 802.84 ± 0.23 | 790.99 ± 0.23 | 1257.8 ± 0.8 | 1207.6 ± 0.8 | 1158.1 ± 0.8
m1 = 0.101 | 818.63 ± 0.22 | 807.15 ± 0.22 | 795.31 ± 0.23 | 1258 ± 0.8 | 1208 ± 0.8 | 1158.8 ± 0.8
m1 = 0.153 | 823.08 ± 0.22 | 811.61 ± 0.22 | 799.78 ± 0.22 | 1257.7 ± 0.8 | 1208.3 ± 0.8 | 1159.4 ± 0.8
m1 = 0.206 | 827.53 ± 0.21 | 816.05 ± 0.22 | 804.22 ± 0.22 | 1257.9 ± 0.8 | 1208.8 ± 0.8 | 1160.1 ± 0.8
m1 = 0.25 | 831.16 ± 0.21 | 819.67 ± 0.21 | 807.85 ± 0.22 | 1258 ± 0.8 | 1209.1 ± 0.8 | 1160.6 ± 0.8
m1 = 0.504 | 851.11 ± 0.2 | 839.58 ± 0.2 | 827.75 ± 0.2 | 1258 ± 0.9 | 1210.5 ± 0.8 | 1163.2 ± 0.8
m1 = 0.756 | 869.28 ± 0.18 | 857.7 ± 0.19 | 845.85 ± 0.19 | 1259.2 ± 0.9 | 1212.1 ± 0.9 | 1165.7 ± 0.8
m1 = 1.009 | 886.03 ± 0.15 | 874.41 ± 0.18 | 862.55 ± 0.21 | 1260.2 ± 0.9 | 1213.9 ± 0.9 | 1168.4 ± 0.8
m1 = 1.262 | 901.54 ± 0.16 | 889.89 ± 0.17 | 878.01 ± 0.17 | 1261 ± 0.9 | 1215.8 ± 0.9 | 1171 ± 0.9
m1 = 1.508 | 915.57 ± 0.16 | 903.89 ± 0.16 | 892 ± 0.17 | 1262.4 ± 0.9 | 1217.9 ± 0.9 | 1173.7 ± 0.9
m1 = 1.758 | 928.83 ± 0.15 | 917.11 ± 0.16 | 905.21 ± 0.16 | 1263.9 ± 0.9 | 1219.9 ± 0.9 | 1176.4 ± 0.9
m1 = 1.989 | 940.32 ± 0.15 | 928.56 ± 0.15 | 916.64 ± 0.15 | 1265.8 ± 0.9 | 1222 ± 0.9 | 1179 ± 0.9
m1 = 2.486 | 962.85 ± 0.14 | 951.04 ± 0.15 | 939.1 ± 0.15 | 1269.5 ± 1 | 1226.6 ± 0.9 | 1184.5 ± 0.9
m1 = 2.979 | 982.55 ± 0.14 | 970.73 ± 0.14 | 958.77 ± 0.15 | 1273.1 ± 1 | 1231.2 ± 1 | 1189.8 ± 1

CCCCn1cc[n+](C)c1.O=S(=O)([O-])C(F)(F)F [1-butyl-3-methylimidazolium trifluoromethanesulfonate] + CCCCCO
[1]
Conditions | osmotic coefficient
m1 = 0.0505 | 0.619 ± 0.018
m1 = 0.0795 | 0.565 ± 0.02
m1 = 0.1004 | 0.529 ± 0.021
m1 = 0.2014 | 0.436 ± 0.023
m1 = 0.3014 | 0.402 ± 0.024
m1 = 0.406 | 0.365 ± 0.025
m1 = 0.5071 | 0.344 ± 0.026
m1 = 0.8272 | 0.299 ± 0.028
m1 = 1.233 | 0.242 ± 0.029
m1 = 1.649 | 0.224 ± 0.03
m1 = 2.044 | 0.202 ± 0.031
m1 = 2.446 | 0.183 ± 0.032
m1 = 2.837 | 0.184 ± 0.032
m1 = 3.34 | 0.184 ± 0.032

[2]
Conditions | mass density, 293.15 K [kg/m3] | mass density, 308.15 K [kg/m3] | mass density, 323.15 K [kg/m3] | speed of sound, 293.15 K [m/s] | speed of sound, 308.15 K [m/s] | speed of sound, 323.15 K [m/s]
m1 = 0.048 | 818.89 ± 0.29 | 807.86 ± 0.3 | 796.5 ± 0.29 | 1292.6 ± 1.3 | 1242.7 ± 1.3 | 1193.2 ± 1.3
m1 = 0.103 | 823.68 ± 0.29 | 812.65 ± 0.29 | 801.3 ± 0.29 | 1292.3 ± 1.3 | 1242.7 ± 1.3 | 1193.6 ± 1.3
m1 = 0.203 | 832.08 ± 0.29 | 821.04 ± 0.29 | 809.68 ± 0.29 | 1291.9 ± 1.3 | 1242.7 ± 1.3 | 1194.1 ± 1.3
m1 = 0.246 | 835.58 ± 0.28 | 824.54 ± 0.28 | 813.18 ± 0.29 | 1291.4 ± 1.3 | 1242.6 ± 1.3 | 1194.1 ± 1.3
m1 = 0.746 | 872.74 ± 0.27 | 861.58 ± 0.27 | 850.17 ± 0.27 | 1289 ± 1.3 | 1242 ± 1.3 | 1195.6 ± 1.3
m1 = 1.014 | 890.36 ± 0.26 | 879.13 ± 0.26 | 867.69 ± 0.26 | 1288.5 ± 1.3 | 1242.2 ± 1.3 | 1196.7 ± 1.3
m1 = 1.517 | 919.71 ± 0.26 | 908.4 ± 0.26 | 896.89 ± 0.26 | 1288.2 ± 1.3 | 1243.4 ± 1.3 | 1199.3 ± 1.3
m1 = 1.778 | 933.35 ± 0.25 | 921.98 ± 0.25 | 910.45 ± 0.25 | 1288.6 ± 1.3 | 1244.5 ± 1.3 | 1201 ± 1.3
m1 = 2.024 | 945.34 ± 0.25 | 933.93 ± 0.25 | 922.38 ± 0.25 | 1289.4 ± 1.3 | 1245.7 ± 1.3 | 1202.7 ± 1.3
m1 = 2.477 | 965.54 ± 0.24 | 954.08 ± 0.24 | 942.49 ± 0.24 | 1290.7 ± 1.3 | 1248.1 ± 1.3 | 1205.9 ± 1.3
m1 = 2.963 | 984.77 ± 0.24 | 973.25 ± 0.24 | 961.63 ± 0.24 | 1292.8 ± 1.3 | 1250.8 ± 1.3 | 1209.4 ± 1.3

CCCCn1cc[n+](C)c1.O=S(=O)([O-])C(F)(F)F [1-butyl-3-methylimidazolium trifluoromethanesulfonate] + CCC(C)O
[1]
Conditions | osmotic coefficient
m1 = 0.0481 | 0.914 ± 0.014
m1 = 0.0784 | 0.806 ± 0.015
m1 = 0.1008 | 0.771 ± 0.015
m1 = 0.2021 | 0.657 ± 0.017
m1 = 0.2917 | 0.568 ± 0.02
m1 = 0.3846 | 0.507 ± 0.021
m1 = 0.485 | 0.472 ± 0.022
m1 = 0.7679 | 0.428 ± 0.024
m1 = 1.126 | 0.379 ± 0.025
m1 = 1.523 | 0.334 ± 0.026
m1 = 1.909 | 0.318 ± 0.027
m1 = 2.282 | 0.31 ± 0.027
m1 = 2.574 | 0.296 ± 0.028
m1 = 2.994 | 0.279 ± 0.028
m1 = 3.448 | 0.275 ± 0.028

[2]
Conditions | mass density, 293.15 K [kg/m3] | mass density, 308.15 K [kg/m3] | mass density, 323.15 K [kg/m3] | speed of sound, 293.15 K [m/s] | speed of sound, 308.15 K [m/s] | speed of sound, 323.15 K [m/s]
m1 = 0.098 | 815.49 ± 0.25 | 802.94 ± 0.26 | 789.53 ± 0.26 | 1231 ± 1 | 1177.6 ± 0.9 | 1122.9 ± 0.9
m1 = 0.149 | 819.88 ± 0.25 | 807.37 ± 0.25 | 794.01 ± 0.26 | 1231.4 ± 1 | 1178.3 ± 0.9 | 1124.1 ± 0.9
m1 = 0.201 | 824.3 ± 0.24 | 811.78 ± 0.25 | 798.46 ± 0.25 | 1231.9 ± 1 | 1179.2 ± 1 | 1125.5 ± 0.9
m1 = 0.249 | 828.21 ± 0.24 | 815.73 ± 0.24 | 802.45 ± 0.25 | 1232 ± 1 | 1179.6 ± 1 | 1126.3 ± 0.9
m1 = 0.498 | 847.84 ± 0.23 | 835.4 ± 0.23 | 822.26 ± 0.24 | 1233.7 ± 1 | 1182.7 ± 1 | 1130.8 ± 1
m1 = 1.002 | 882.87 ± 0.22 | 870.47 ± 0.22 | 857.52 ± 0.23 | 1238.2 ± 1 | 1189.5 ± 1 | 1140.3 ± 1
m1 = 1.239 | 897.53 ± 0.21 | 885.16 ± 0.21 | 872.26 ± 0.22 | 1240.2 ± 1 | 1192.4 ± 1 | 1144 ± 1
m1 = 1.522 | 913.81 ± 0.21 | 901.44 ± 0.21 | 888.61 ± 0.21 | 1243.1 ± 1.1 | 1196.2 ± 1 | 1148.8 ± 1
m1 = 1.763 | 926.62 ± 0.2 | 914.26 ± 0.2 | 901.49 ± 0.21 | 1245.6 ± 1.1 | 1199.4 ± 1 | 1152.7 ± 1
m1 = 2.497 | 961.11 ± 0.2 | 948.77 ± 0.2 | 936.11 ± 0.21 | 1253.6 ± 1.1 | 1209.2 ± 1.1 | 1164.3 ± 1.1
m1 = 2.935 | 978.86 ± 0.2 | 966.54 ± 0.2 | 953.94 ± 0.2 | 1258.2 ± 1.1 | 1214.5 ± 1.1 | 1170.8 ± 1.1
